From US8642736B2, “Casein complexes” (DSM IP Assets B. V., priority 2006, dated 2014)

Legend:
[1] = Dispersion stability of 10% dispersion: resveratrol content, upper part vs after mixing; type: physicochemical; conditions: aqueous dispersion; likely much less using similar dispersion conditions
Procedure: The powder (2.5 g) was dispersed in deionized water (47.5 g) with stirring. The dispersion was centrifuged at 3000 rpm for 5 minutes (Sigma Centrifuge 6-10, Sigma Laborzentrifugen GmbH, Germany) to remove the un-dispersible material. The supernatant was lyophilized to yield 1.7 g powder. The powder (1 g) was suspended in deionized water (9 g) to give a 10% homogenous dispersion. A sample of the dispersion was placed in a test tube and stored at room temperature for 3 hours and then at 5° C. for 1 day. A small sample was taken from the upper part of the test tube and then a sample was taken after mixing. […] The results indicated the dispersion stability. The highly concentrate dispersion can be conveniently used for various applications in pharmaceuticals and cosmetics, food and feed, especially in beverages.
A dispersion of more than 0.005% (likely much less using similar dispersion conditions) of non-complexed resveratrol would result in precipitation of resveratrol.

[2] = Storage stability: resveratrol in supernatant of aqueous dispersions (UV method); type: physicochemical
Procedure: Resveratrol-caseinate complex used was the oven-dried material described in Example 8 (non-dispersible material was not removed by centrifugation). Crystalline resveratrol was included for comparison.
Complexed and crystalline resveratrol was dispersed in deionized water of pH 6.8 or 3.0 to give a final target dispersion concentration of 60 and 80 ppm. The desired pH was achieved by pH adjustment using dilute HCl or NaHCO3 The samples were heated in a water bath till 80° C. and then held at 80° C. for 1 minute. The samples were stored in the dark at 25° C. and 5° C. During storage, resveratrol recrystallized and precipitated in some samples. The resveratrol concentration in the supernatant were determined by a UV method and the results are shown below, […]

[3] = target 60 ppm, pH 3.0, stored in the dark at 5 C.
[4] = target 60 ppm, pH 3.0, stored in the dark at 25 C.
[5] = target 60 ppm, pH 6.8, stored in the dark at 5 C.
[6] = target 60 ppm, pH 6.8, stored in the dark at 25 C.
[7] = target 80 ppm, pH 3.0, stored in the dark at 5 C.
[8] = target 80 ppm, pH 3.0, stored in the dark at 25 C.
[9] = target 80 ppm, pH 6.8, stored in the dark at 5 C.
[10] = target 80 ppm, pH 6.8, stored in the dark at 25 C.

dispersion concentration that would result in precipitation of resveratrol [1]: more than 0.005% | Resveratrol in supernatant, Initial ([2]; target 60 ppm, pH 3.0, 5 C.): 58 ppm | Resveratrol in supernatant, Initial ([2]; target 60 ppm, pH 3.0, 25 C.): 58 ppm | Resveratrol in supernatant, 1 week [2, 3]: 28 ppm | Resveratrol in supernatant, 1 week (% in parentheses) [2, 3]: 48% | Resveratrol in supernatant, 2.4 week [2, 3]: 19 ppm | Resveratrol in supernatant, 2.4 week (% in parentheses) [2, 3]: 33% | Resveratrol in supernatant, 1 week [2, 4]: 43 ppm | Resveratrol in supernatant, 1 week (% in parentheses) [2, 4]: 74% | Resveratrol in supernatant, 2.4 week [2, 4]: 39 ppm | Resveratrol in supernatant, 2.4 week (% in parentheses) [2, 4]: 67% | Resveratrol in supernatant, Initial ([2]; target 60 ppm, pH 6.8, 5 C.): 60 ppm | Resveratrol in supernatant, Initial ([2]; target 60 ppm, pH 6.8, 25 C.): 60 ppm | Resveratrol in supernatant, 1 week [2, 5]: 23 ppm | Resveratrol in supernatant, 1 week (% in parentheses) [2, 5]: 38% | Resveratrol in supernatant, 2.4 week [2, 5]: 17 ppm | Resveratrol in supernatant, 2.4 week (% in parentheses) [2, 5]: 28% | Resveratrol in supernatant, 1 week [2, 6]: 45 ppm | Resveratrol in supernatant, 1 week (% in parentheses) [2, 6]: 75% | Resveratrol in supernatant, 2.4 week [2, 6]: 39 ppm | Resveratrol in supernatant, 2.4 week (% in parentheses) [2, 6]: 65% | Resveratrol in supernatant, Initial ([2]; target 80 ppm, pH 3.0, 5 C.): 80 ppm | Resveratrol in supernatant, Initial ([2]; target 80 ppm, pH 3.0, 25 C.): 80 ppm | Resveratrol in supernatant, 1 week [2, 7]: 28 ppm | Resveratrol in supernatant, 1 week (% in parentheses) [2, 7]: 35% | Resveratrol in supernatant, 2.4 week [2, 7]: 16 ppm | Resveratrol in supernatant, 2.4 week (% in parentheses) [2, 7]: 20% | Resveratrol in supernatant, 1 week [2, 8]: 47 ppm | Resveratrol in supernatant, 1 week (% in parentheses) [2, 8]: 59% | Resveratrol in supernatant, 2.4 week [2, 8]: 38 ppm | Resveratrol in supernatant, 2.4 week (% in parentheses) [2, 8]: 48% | Resveratrol in supernatant, Initial ([2]; target 80 ppm, pH 6.8, 5 C.): 79 ppm | Resveratrol in supernatant, Initial ([2]; target 80 ppm, pH 6.8, 25 C.): 79 ppm | Resveratrol in supernatant, 1 week [2, 9]: 24 ppm | Resveratrol in supernatant, 1 week (% in parentheses) [2, 9]: 30% | Resveratrol in supernatant, 2.4 week [2, 9]: 16 ppm | Resveratrol in supernatant, 2.4 week (% in parentheses) [2, 9]: 20% | Resveratrol in supernatant, 1 week [2, 10]: 45 ppm | Resveratrol in supernatant, 1 week (% in parentheses) [2, 10]: 57% | Resveratrol in supernatant, 2.4 week [2, 10]: 43 ppm | Resveratrol in supernatant, 2.4 week (% in parentheses) [2, 10]: 54%
SMILES: Oc1ccc(C=Cc2cc(O)cc(O)c2)cc1 [Resveratrol, 3,4′,5-trihydroxystilbene]
